The nature of the experiment: ability of test compounds to treat migraine (as described in U.S. Pat. No. 5,817,671, U.S. Pat. No. 5,792,763 and J. Neurosci. Methods 1998, 81, 19-24). Particulars: in vivo.

SMILES strings stand for the structures.

Regarding `CCOc1ccc(C2ON(S(=O)(=O)c3ccc(C(=O)NC)cc3)C(C)C=C2C)cc1` (stereo not shown) [Example 5, 3,6-Dihydro-3,5-dimethyl-6-(4-ethoxyphenyl)-2-(4-methylcarbamoylbenzenesulphonyl)-2H-1,2-oxazine], the “effectiveness in treatment of migraine” value was “particularly effective”.

Source of the values: patent publication US6482824B1, “Use of n-substituted (3,6-dihydro)-2h-1,2-oxazine derivatives as selective mglur1 antagonists” (Eli Lilly and Company, priority 1998, dated 2002).
